Test results as given in the supplement of paper PMC10307832.

Experiments:
Test in all cases: relative viability (nuclei count vs DMSO), 5 days (fraction); higher = more cells survive
[1] = compound: CS(=O)(=O)N1CCN(Cc2cc3nc(-c4cccc5[nH]ncc45)nc(N4CCOCC4)c3s2)CC1 [Pictilisib] + CS(=O)(=O)CCNCc1ccc(-c2ccc3ncnc(Nc4ccc(OCc5cccc(F)c5)c(Cl)c4)c3c2)o1 [Lapatinib] (partner 2 µM)
Outline: (§1)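 Lung cancer cell lines were pin-tool dosed in 1536-well plates on the day after seeding, with either a lone drug or a fixed anchor-drug dose plus five library-drug doses (not always all listed) in √10 steps. Nuclei were counted on 4× images after 5 days. Relative viability is the ratio of treated-well to vehicle-well nuclei counts, with each value a median of duplicate plates.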

[2] = compound: CS(=O)(=O)N1CCN(Cc2cc3nc(-c4cccc5[nH]ncc45)nc(N4CCOCC4)c3s2)CC1 [Pictilisib] + N=C(N)NC(=N)NCCc1ccccc1 [Phenformin] (partner 250 µM)
Outline: as §1

[3] = compound: NC1(c2ccc(-c3nc4ccn5c(=O)[nH]nc5c4cc3-c3ccccc3)cc2)CCC1 [MK-2206] + CC1(C)CCC(c2ccc(Cl)cc2)=C(CN2CCN(c3ccc(C(=O)NS(=O)(=O)c4ccc(N[C@H](CCN5CCOCC5)CSc5ccccc5)c(S(=O)(=O)C(F)(F)F)c4)cc3)CC2)C1 [Navitoclax] (partner 0.5 µM)
Outline: as §1

[4] = compound: NC1(c2ccc(-c3nc4ccn5c(=O)[nH]nc5c4cc3-c3ccccc3)cc2)CCC1 [MK-2206] + CCNC(=O)c1noc(-c2cc(C(C)C)c(O)cc2O)c1-c1ccc(CN2CCOCC2)cc1 [Luminespib] (partner 0.01 µM)
Outline: as §1

[5] = compound: NC1(c2ccc(-c3nc4ccn5c(=O)[nH]nc5c4cc3-c3ccccc3)cc2)CCC1 [MK-2206] + Nc1ncn([C@H]2C[C@H](O)[C@@H](CO)O2)c(=O)n1 [Decitabine] (partner 2 µM)
Outline: as §1

Row | Cell Line | relative viability ([1]; first compound 0.02 µM) | relative viability ([1]; first compound 0.06325 µM) | relative viability ([1]; first compound 0.6325 µM) | relative viability ([1]; first compound 2 µM) | relative viability ([2]; first compound 0.02 µM) | relative viability ([2]; first compound 0.06325 µM) | relative viability ([2]; first compound 0.6325 µM) | relative viability ([2]; first compound 2 µM) | relative viability ([3]; first compound 0.01 µM) | relative viability ([3]; first compound 0.03162 µM) | relative viability ([3]; first compound 0.3162 µM) | relative viability ([3]; first compound 1 µM) | relative viability ([4]; first compound 0.01 µM) | relative viability ([4]; first compound 0.03162 µM) | relative viability ([4]; first compound 0.3162 µM) | relative viability ([4]; first compound 1 µM) | relative viability ([5]; first compound 0.01 µM) | relative viability ([5]; first compound 0.03162 µM) | relative viability ([5]; first compound 0.3162 µM) | relative viability ([5]; first compound 1 µM)
1 | 201T | 1.02 | 1.01 | 0.969 | 0.933 | 0.476 | 0.443 | 0.409 | 0.3 | 1.23 | 1.28 | 1.23 | 1.21 | 1.01 | 1.05 | 1.09 | 1.03 | 0.817 | 0.892 | 0.882 | 0.842
2 | A549 | 0.93 | 0.906 | 0.595 | 0.606 | 0.235 | 0.177 | 0.155 | 0.0936 | 1.19 | 1.08 | 1.11 | 0.991 |  |  |  |  | 0.304 | 0.26 | 0.24 | 0.294
3 | A-427 | 0.98 | 1.09 | 1 | 0.932 | 0.345 | 0.357 | 0.27 | 0.212 | 0.937 | 0.877 | 0.849 | 0.902 | 0.882 | 0.947 | 0.975 | 0.901 | 0.6 | 0.603 | 0.562 | 0.567
4 | ABC-1 | 1.08 | 1.27 | 1.04 | 0.631 | 0.254 | 0.214 | 0.195 | 0.209 |  |  |  |  | 0.601 | 0.334 | 0.481 | 0.391 | 1.19 | 1.25 | 1.06 | 1.02
5 | BEN | 0.715 | 0.755 | 0.844 | 0.498 | 0.315 | 0.286 | 0.286 | 0.248 | 0.069 | 0.0836 | 0.0745 | 0.0466 | 0.404 | 0.484 | 0.274 | 0.495 | 0.909 | 0.673 | 0.679 | 0.643
6 | CAL-12T | 0.6 | 0.638 | 0.653 | 0.468 | 0.612 | 0.578 | 0.467 | 0.239 | 0.963 | 1.32 | 1.22 | 1.14 | 0.362 | 0.515 | 0.457 | 0.477 |  |  |  | 
7 | COR-L23 | 1.2 | 1.08 | 0.993 | 0.77 | 0.428 | 0.471 | 0.522 | 0.424 | 0.969 | 1.14 | 1.07 | 0.877 | 0.713 | 0.695 | 0.581 | 0.529 | 0.411 | 0.417 | 0.421 | 0.388
8 | COR-L 105 | 0.394 | 0.401 | 0.338 | 0.325 | 0.584 | 0.508 | 0.362 | 0.272 | 0.82 | 0.741 | 0.815 | 0.481 | 0.868 | 0.803 | 0.888 | 0.729 | 0.656 | 0.568 | 0.624 | 0.779
9 | Calu-6 | 1.15 | 1.19 | 0.898 | 0.911 |  |  |  |  | 0.937 | 0.9 | 0.861 | 0.828 |  |  |  |  |  |  |  | 
10 | ChaGo-K-1 |  |  |  |  | 0.438 | 0.529 | 0.42 | 0.33 | 1.3 | 1.17 | 0.816 | 0.454 | 0.668 | 0.661 | 0.541 | 0.679 | 0.533 | 0.511 | 0.514 | 0.526
11 | EBC-1 | 0.237 | 0.208 | 0.237 | 0.204 |  |  |  |  | 0.455 | 0.385 | 0.23 | 0.131 |  |  |  |  |  |  |  | 
12 | EKVX | 0.212 | 0.215 | 0.186 | 0.136 | 0.228 | 0.256 | 0.211 | 0.178 | 0.859 | 1.05 | 0.934 | 0.65 | 0.991 | 0.872 | 0.801 | 0.69 | 0.359 | 0.339 | 0.324 | 0.322
13 | EMC-BAC-2 | 0.906 | 0.924 | 0.735 | 0.575 | 0.604 | 0.515 | 0.432 | 0.335 | 1.13 | 1.14 | 1.15 | 1.08 | 1.22 | 1.18 | 1.08 | 1.07 | 0.98 | 0.956 | 0.939 | 0.829
14 | EPLC-272H | 1.03 | 1.09 | 0.658 | 0.513 | 0.284 | 0.323 | 0.23 | 0.197 | 0.915 | 1.18 |  | 1.08 | 0.585 | 0.263 | 0.338 | 0.323 | 0.392 | 0.345 | 0.364 | 0.392
15 | H3255 | 0.237 | 0.222 | 0.153 | 0.124 | 0.399 | 0.344 | 0.334 | 0.318 | 0.519 | 0.579 | 0.439 | 0.312 | 0.872 | 1.12 | 0.754 | 0.835 | 0.611 | 0.628 | 0.51 | 0.502
16 | HARA | 0.703 | 0.724 | 0.378 | 0.354 | 0.454 | 0.469 | 0.37 | 0.244 | 1.08 | 1.11 | 1.24 | 1.17 | 0.798 | 1.06 | 0.77 | 0.839 | 0.435 | 0.481 | 0.551 | 0.587
17 | HCC-15 | 0.936 | 0.91 | 0.789 | 0.692 | 0.506 | 0.504 | 0.346 | 0.261 | 0.687 | 0.622 | 0.617 | 0.62 | 0.404 | 0.232 | 0.413 | 0.292 | 0.63 | 0.774 | 0.549 | 0.353
